Source: article PMC9026285 (ACS Chemical Neuroscience, 2022)
Each block holds one molecule with its values, some of them ahead of it.

Columns and labels:
[1] = cited from earlier work
recombinant human HexA = target: T1, recombinant human HexA (Homo sapiens, UniProt P06865); experiment: Hexosaminidase A assay; format: biochemical
T1 sequence (P06865 89-529): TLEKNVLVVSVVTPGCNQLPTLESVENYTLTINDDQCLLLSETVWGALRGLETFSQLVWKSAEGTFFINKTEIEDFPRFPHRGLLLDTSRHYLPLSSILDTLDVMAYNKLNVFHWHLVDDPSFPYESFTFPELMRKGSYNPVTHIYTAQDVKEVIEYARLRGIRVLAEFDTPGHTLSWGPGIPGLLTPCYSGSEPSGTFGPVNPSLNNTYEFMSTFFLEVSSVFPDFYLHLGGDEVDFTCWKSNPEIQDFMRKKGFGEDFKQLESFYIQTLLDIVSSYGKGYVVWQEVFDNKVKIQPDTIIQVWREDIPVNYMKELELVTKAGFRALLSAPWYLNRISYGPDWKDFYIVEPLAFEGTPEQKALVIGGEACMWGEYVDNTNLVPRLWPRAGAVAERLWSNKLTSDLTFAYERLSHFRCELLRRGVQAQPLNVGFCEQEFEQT

[2] = target: HexA/B from human placenta; experiment: Hexosaminidase A/B assay; format: biochemical
[3] = test system: protein O-GlcNAcylation in human PBMC; experiment: In vitro PBMC cell-based assay, human PBMC; conditions: 4 h, read-out: EC50, protein O-GlcNAcylation in human PBMC
hTauP301L mice = experiment: Chronic; format: in vivo, mouse; conditions: P301L mice
[4] = test system: Line 61 α-synuclein transgenic mice; experiment: Beam walk test in Line 61 α-synuclein transgenic mice, chronic treatment; format: in vivo, mouse; conditions: Line 61 mice, 30 and 100 mg/kg/day oral, after 12 weeks, persisted to week 24
[5] = test system: GFAP (astrogliosis), pS129 and human α-synuclein; experiment: GFAP immunoassay and histopathology in Line 61 mice; format: in vivo, mouse; conditions: hippocampus, 24 weeks
Half-life in mice = conditions: mouse, in vivo
[6] = test system: brain protein and α-synuclein O-GlcNAcylation; experiment: O-protein and O-GlcNAcylated α-synuclein; conditions: Line 61 mice; for increase in brain protein O-GlcNAcylation (mean): 24 weeks, t = 4 h post-dose
[7] = up to the highest concentration tested (30 μM)

Compound: CCN=C1N[C@@H]2[C@@H](O)[C@H](O)[C@@H](CO)O[C@@H]2S1 [Thiamet G]
- brain-to-plasma ratio [1]: 0.1

- IC50 (recombinant human HexA): 490 nM
- IC50 ([2]; read-out: IC50 HexA/B): 31 nM
Compound: CC(=O)N[C@H]1/C(=N/OC(=O)Nc2ccccc2)O[C@H](CO)[C@@H](O)[C@@H]1O [PUGNAc, reference compound]

Compound: CC(=O)Nc1nnc(N2CCN([C@@H](C)c3ccc4c(c3)OCO4)CC2)s1 [ASN90, (S)-N-(5-(4-(1-(benzo[d][1,3]dioxol-5-yl)ethyl)piperazin-1-yl)-1,3,4-thiadiazol-2-yl)acetamide]
- inhibitory activity on HexA (recombinant human HexA; [7]): no inhibitory activity
- inhibitory activity on HexA/B [2, 7]: no inhibitory activity
- EC50 [3]: 209 nM
- survival (hTauP301L mice; 30 and 100 mg/kg/day oral, 6 months): significantly increased survival
- effect on pathogenic tau pS202/205 (AT8) (hTauP301L mice; brainstem and hippocampus, chronic treatment): no statistically significant treatment effects
- motor performance in three types of beam walk (slips) [4]: highly significant treatment benefit
- object size for pS129 α-synuclein immunoreactivity [5]: significant decrease
- total α-synuclein immunoreactivity [5]: unchanged
- half-life (Half-life in mice): 2.8 h
- increase in brain protein O-GlcNAcylation (mean) ([6]; 30 mg/kg/day): +78%
- increase of O-GlcNAcylated α-synuclein as % of total ([6]; 100 mg/kg, chronic, vs vehicle): 1.7 fold
- increase in brain protein O-GlcNAcylation (mean) ([6]; 100 mg/kg/day): +105%
